Laboratory results as given in patent US20260097056A1, “SYK ACTIVATORS AND INHIBITORS IN NEURODEGENERATIVE DISEASES” (University of Virginia Patent Foundation, priority 2022, published 2026).

Legend:
[1] = test system: bone marrow-derived macrophages (BMDMs); assay: In vitro Aβ phagocytosis assay (CypHer5E-tagged Aβ oligomers, flow cytometry); assay type: cell-based, mouse; details: SYK-deficient (Syk^fl/fl LysM^Cre) BMDMs; 10 μM Tideglusib 1 hour before 10 μM CypHer5E-tagged Aβ oligomers; read 24 hours later; vs vehicle
Description: Monomerization of Aβ (1-42) (641-15, California peptide) was achieved using a previously published protocol (Stine et al., 2011), using hexafluoroisopropanol (HFIP) (52517, Sigma-Aldrich). 5 mM monomeric Aβ samples were incubated for 24 hours at 4° C. in F12 media to make a 200 μM stock of oligomeric Aβ. Samples were then incubated with CypHer5E-NHS ester (PA15401, […]) diluted in 0.1 M sodium bicarbonate for 30 minutes covered and at room temperature. Following incubation, Biospin columns (7326227, Bio-Rad) were used to […] unbound dye. CypHer5E-tagged Aβ oligomers were stored at 4° C. prior to BMDM treatment. Bone marrow-derived macrophages (BMDMs) were isolated from the hindlimbs of WT and Syk^fl/fl LysM^Cre mice. Marrow-containing bones were sprayed with 70% ethanol before being placed in IMDM (Thermo Fisher, 12440-053) containing penicillin/streptomycin (P/S) (Thermo Fisher, 15140163). A 25-gauge needle was used to flush marrow from the bones using 20 ml of IMDM containing P/S. An 18-gauge needle was then used to triturate flushed bone marrow 5 times to make a single-cell suspension. Samples were spun down at 1500 rpm for 5 minutes at 4° C. […] 24 hours post Aβ treatment, BMDMs were then collected, and flow cytometry was used to assess CypHer5E fluorescence. […]

5xFAD mice = assay: Intrahippocampal injection, Aβ load in hippocampus by immunofluorescence; assay type: in vivo; details: 2 μg pustulan intrahippocampal vs vehicle-injected hemisphere of the same mouse, 7 days post injection
Description: Floating brains sectioned stored in PBS+0.05% sodium azide were blocked with 2% donkey serum, 1% bovine serum albumin, 0.1% triton, 0.05% tween in PBS for 1 hour at room temperature before applying the primary antibody master mix diluted in this block overnight at 4° C. Samples were stained with anti-AB (D54D2, Cell Signaling, 1:300; or 6e10, BioLegend, 1:1000) to label plaques. To study microglial morphology and numbers, sections were stained with Iba1 (ab5076, Abcam, 1:300). To further characterize microglia, we labeled with Ki67-EF660 (SoIA15, Thermo Fisher, 1:100), anti-Clec7a (R1-8g7, Invivogen, 1:30), Tmem119 (ab209064, Abcam, 1:300), and anti-CD68 (FA-11, BioRad, 1:1000). […] Quantification of images were performed using Fiji software or Imaris software (9.5.1).
5xFAD and 5xFAD Syk^ΔMG mice were anesthetized before receiving a bilateral hippocampal injection of 2 μl of vehicle or 2 μg pustulan into the right and left hemisphere of the hippocampus (at +2 mm lateral, −2 mm posterior, and −2 mm ventral relative to the intersection of the coronal and sagittal suture (bregma) at a rate of 200 nl/min) using a stereotaxic frame (51730U, Stoelting) and nanoliter injector (NL2010MC2T, World Precision Instruments). […] Images were analyzed using Fiji software and Imaris software (9.5.1).

O=c1sn(-c2cccc3ccccc23)c(=O)n1Cc1ccccc1 [Tideglusib]
Aβ phagocytosis (CypHer5E fluorescence, percent CypHer5E+ CD11b^hi F4/80^hi cells) [1]: significantly increased Aβ phagocytosis

pustulan
Aβ load in injected hippocampal hemisphere (D54D2 immunofluorescence) (5xFAD mice): decreased Aβ load
